Literature values, collected in patent US9180194B2, “Method and composition for transdermal drug delivery” (Acrux DDS Pty Ltd, priority 2005, dated 2015).

Settings: continuous trans-scrotal delivery

Compound: C[C@]12CC[C@H]3[C@@H](CCC4=CC(=O)CC[C@@]43C)[C@@H]1CC[C@@H]2O [testosterone]
- levels of DHT and DHT/testosterone ratios relative to normal: 4 to 5 fold
